Test results as given in article PMC11671411 (Oncology Research, 2024).
pIC50: −log10 of the molar value.

Target: T1, PI3KCD (Homo sapiens, UniProt O00329)
T1 construct: gene PIK3CD
Assay: PI 3-Kinase (human) HTRF enzyme assay with the PI3KCD isoform
Format: biochemical

T1 sequence (O00329 whole entry): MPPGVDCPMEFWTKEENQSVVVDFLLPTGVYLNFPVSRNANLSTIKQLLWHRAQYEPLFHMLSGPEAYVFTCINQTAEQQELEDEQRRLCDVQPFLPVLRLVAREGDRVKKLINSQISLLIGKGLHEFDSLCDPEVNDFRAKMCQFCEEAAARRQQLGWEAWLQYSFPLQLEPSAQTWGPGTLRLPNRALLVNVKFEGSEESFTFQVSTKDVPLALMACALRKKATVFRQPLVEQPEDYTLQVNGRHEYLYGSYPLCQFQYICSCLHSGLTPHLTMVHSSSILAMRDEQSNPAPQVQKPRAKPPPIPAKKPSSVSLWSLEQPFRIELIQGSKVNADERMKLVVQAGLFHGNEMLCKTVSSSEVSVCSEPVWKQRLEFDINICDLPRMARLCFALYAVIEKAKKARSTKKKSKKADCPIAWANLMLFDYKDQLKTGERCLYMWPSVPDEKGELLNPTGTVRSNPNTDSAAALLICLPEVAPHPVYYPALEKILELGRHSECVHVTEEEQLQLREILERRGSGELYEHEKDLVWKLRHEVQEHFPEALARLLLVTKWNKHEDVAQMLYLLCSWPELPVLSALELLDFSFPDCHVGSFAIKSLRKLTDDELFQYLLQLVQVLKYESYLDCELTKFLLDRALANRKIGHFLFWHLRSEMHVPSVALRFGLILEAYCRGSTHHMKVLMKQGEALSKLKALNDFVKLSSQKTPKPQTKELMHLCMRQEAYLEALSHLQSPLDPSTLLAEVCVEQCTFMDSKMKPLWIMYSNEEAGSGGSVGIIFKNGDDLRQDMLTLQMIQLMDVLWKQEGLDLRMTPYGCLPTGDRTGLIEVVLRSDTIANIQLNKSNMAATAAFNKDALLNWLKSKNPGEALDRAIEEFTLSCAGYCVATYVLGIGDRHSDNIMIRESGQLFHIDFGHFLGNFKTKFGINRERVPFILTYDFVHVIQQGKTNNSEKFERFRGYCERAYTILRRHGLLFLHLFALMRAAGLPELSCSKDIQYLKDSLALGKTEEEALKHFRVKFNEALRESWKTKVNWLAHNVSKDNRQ

Question: How did the pIC50 turn out when `c1ccc2c(c1)c1ccccc1c1nc3c4ccccc4c4ccccc4c3nc21` [SBL-JP-0004, tetrabenzo[a,c,h,j]phenazine] was run?
Answer: 6.70
